According to article PMC8286840, “Identifying SARS-CoV-2 antiviral compounds by screening for small molecule inhibitors of Nsp3 papain-like protease” (Biochemical Journal, 2021):
Counter-ions that a name gives are not always drawn. Like-named read-outs stand apart in the source and are kept apart here. Where a SMILES comes first, the peptide text is derived from it. [ ]: non-standard residue; d: D form. αMeP = C[C@@]1(C(=O)O)CCCN1

Legend:
[1] = target: T1, SARS-CoV-2 PLpro (nsp3 1564–1878) (Severe acute respiratory syndrome coronavirus 2, UniProt P0DTD1); experiment: biochemical; parameters: FRET-quenched peptide (Pro3) cleavage by PLpro, 10 min pre-incubation, slope over 20 min, normalised to no-compound control; conditions: low concentration screen, read-out: % of control remaining
[2] = target: T1, SARS-CoV-2 PLpro (nsp3 1564–1878); experiment: biochemical; parameters: FRET-quenched peptide (Pro3) cleavage by PLpro, 10 min pre-incubation, slope over 20 min, normalised to no-compound control; conditions: high concentration screen, read-out: % of control remaining

CC1(C)O[C@@H]2C[C@H]3[C@@H]4C[C@H](F)C5=CC(=O)C=C[C@]5(C)[C@@]4(F)[C@@H](O)C[C@]3(C)[C@]2(C(=O)CO)O1 [Fluocinolone (Acetonide)]
remaining activity at 1.25 µM ([1]; Well no.=6667): 108% | remaining activity at 3.75 µM ([2]; Well no.=6667): 111%

O=S1(=O)N(CCN2CC=C(c3c[nH]c4cc(F)ccc34)CC2)c2cccc3c2N1CCC3 [LY-367,265]
remaining activity at 1.25 µM ([1]; Well no.=785): 100% | remaining activity at 3.75 µM ([2]; Well no.=785): 103%

O=C1C=C2C(=CCOC2O)O1 (centres unmarked) [Patulin]
remaining activity at 1.25 µM ([1]; Well no.=3543): 105% | remaining activity at 3.75 µM ([2]; Well no.=3543): 103%

Nc1ncnc2c1ncn2C1CCCO1 (centres unmarked) [SQ22536]
remaining activity at 1.25 µM ([1]; Well no.=6236): 103% | remaining activity at 1.25 µM ([1]; Well no.=7958): 92.2% | remaining activity at 3.75 µM ([2]; Well no.=6236): 104% | remaining activity at 3.75 µM ([2]; Well no.=7958): 93.7%

Nc1ncnc2c1ncn2C1CCCC1 [9-cyclopentyladenine]
remaining activity at 1.25 µM ([1]; Well no.=176): 93.3% | remaining activity at 3.75 µM ([2]; Well no.=176): 91.5%

CCCCC[C@H](O)/C=C/[C@@H]1[C@H]2C/C(=C/CCCC(=O)O)C[C@H]2C[C@H]1O [Carbacyclin]
remaining activity at 1.25 µM ([1]; Well no.=4529): 91.4% | remaining activity at 3.75 µM ([2]; Well no.=4529): 95.8%

Nc1c(Br)cc(Br)cc1CN[C@H]1CC[C@H](O)CC1 [Ambroxol]
remaining activity at 1.25 µM ([1]; Well no.=1614): 102% | remaining activity at 1.25 µM ([1]; Well no.=3892): 98.1% | remaining activity at 3.75 µM ([2]; Well no.=1614): 101% | remaining activity at 3.75 µM ([2]; Well no.=3892): 97.9%

COc1cccc2c1[C@@H]1CN(CCCCn3c(=O)[nH]c4c(sc5ncc(-c6ccccc6)nc54)c3=O)C[C@@H]1CO2 [Fiduxosin hydrochloride]
remaining activity at 1.25 µM ([1]; Well no.=611): 97.2% | remaining activity at 3.75 µM ([2]; Well no.=611): 97.4%

CC(C)CN(C[C@@H](OP(=O)(O)O)[C@H](Cc1ccccc1)NC(=O)O[C@H]1CCOC1)S(=O)(=O)c1ccc(N)cc1 [Fosamprenavir]
remaining activity at 1.25 µM ([1]; Well no.=7846): 104% | remaining activity at 3.75 µM ([2]; Well no.=7846): 102%

Cc1ccc(O)c(N=Nc2c(O)cc(S(=O)(=O)O)c3ccccc23)c1 [Calmagite]
remaining activity at 1.25 µM ([1]; Well no.=8168): 96.3% | remaining activity at 3.75 µM ([2]; Well no.=8168): 82.2%

NC(N)=NCCC[C@H](NC(=O)COCC(c1ccccc1)c1ccccc1)C(=O)O [SB290157 (trifluoroacetate)]
remaining activity at 1.25 µM ([1]; Well no.=8404): 94.2% | remaining activity at 3.75 µM ([2]; Well no.=8404): 92.8%

CCN(CC)CCNC(=O)c1cc(Cl)c(N)cc1OC [Metoclopramide (hydrochloride hydrate)]
remaining activity at 1.25 µM ([1]; Well no.=7435): 106% | remaining activity at 3.75 µM ([2]; Well no.=7435): 109%

O=C(O)/C=C/C(=O)O [3-Aminopropionitrile fumarate]
remaining activity at 1.25 µM ([1]; Well no.=251): 92.7% | remaining activity at 3.75 µM ([2]; Well no.=251): 93.7%

C=C1CC[C@H](O)C/C1=C/C=C1\CCC[C@]2(C)[C@@H]([C@H](C)/C=C/[C@H](C)C(C)C)CC[C@@H]12 [Vitamin D2]
remaining activity at 1.25 µM ([1]; Well no.=7411): 107% | remaining activity at 3.75 µM ([2]; Well no.=7411): 106%

CC1(C)CCC2=C(O1)c1ccccc1C(=O)C2=O [_-Lapachone]
remaining activity at 1.25 µM ([1]; Well no.=6166): 104% | remaining activity at 3.75 µM ([2]; Well no.=6166): 79.2%

CCCCCCCCCCCCCCCCOCC(COP(=O)([O-])OCC[N+](C)(C)C)OC (centres unmarked) [1-Hexadecyl-2-methylglycero-3 PC]
remaining activity at 1.25 µM ([1]; Well no.=4259): 95.4% | remaining activity at 3.75 µM ([2]; Well no.=4259): 92%

CCCCC/C=C\C\C=C/C=C/C=C/[C@@H](SCC(NC(C)=O)C(=O)O)[C@@H](O)CCCC(=O)O (some centres unmarked) [N-Acetyl-leukotriene E4]
remaining activity at 1.25 µM ([1]; Well no.=4435): 101% | remaining activity at 3.75 µM ([2]; Well no.=4435): 102%

C[C@H]1O[C@@H](n2cc(F)c(=O)[nH]c2=O)[C@H](O)[C@@H]1O [Doxifluridine]
remaining activity at 1.25 µM ([1]; Well no.=1990): 101% | remaining activity at 1.25 µM ([1]; Well no.=8843): 96.7% | remaining activity at 3.75 µM ([2]; Well no.=1990): 103% | remaining activity at 3.75 µM ([2]; Well no.=8843): 89.3%

c1cc(OCCN2CCCCC2)cc(-c2n[nH]c3ccc(-c4nnc[nH]4)cc23)c1 [CC-401]
remaining activity at 1.25 µM ([1]; Well no.=3027): 99.3% | remaining activity at 3.75 µM ([2]; Well no.=3027): 96.9%

C=C1C[C@]23C[C@@]1(O)CC[C@H]2[C@@]12C=C[C@H](O)[C@@](C)(C(=O)O1)[C@H]2[C@@H]3C(=O)O [(+)-Gibberellic acid]
remaining activity at 1.25 µM ([1]; Well no.=3212): 103% | remaining activity at 3.75 µM ([2]; Well no.=3212): 105%

C#CC(N)CCC(=O)O (centres unmarked) [gamma-Acetylinic GABA]
remaining activity at 1.25 µM ([1]; Well no.=258): 94% | remaining activity at 3.75 µM ([2]; Well no.=258): 94.8%

Cn1ncnc1COc1nn2c(-c3c(F)cccc3F)nnc2cc1C1CCC1 [MK-0343]
remaining activity at 1.25 µM ([1]; Well no.=5828): 101% | remaining activity at 3.75 µM ([2]; Well no.=5828): 102%

COC(=O)[C@H](c1ccccc1Cl)N1CCC2SC(=O)C=C2C1 (some centres unmarked) [Clopidogrel thiolactone]
remaining activity at 1.25 µM ([1]; Well no.=8562): 95.8% | remaining activity at 3.75 µM ([2]; Well no.=8562): 95.5%

CCCn1c(=O)c2c(ncn2C)n(CCC)c1=O [1,3-Dipropyl-7-methylxanthine]
remaining activity at 1.25 µM ([1]; Well no.=448): 102% | remaining activity at 3.75 µM ([2]; Well no.=448): 101%

CCN(CC)CCOC(=O)c1cc(Cl)c(N)cc1OC [SDZ-205,557 hydrochloride]
remaining activity at 1.25 µM ([1]; Well no.=1327): 101% | remaining activity at 3.75 µM ([2]; Well no.=1327): 100%

CC(C)(C)NCC(O)c1cc(Cl)c(N)c(Cl)c1 (centres unmarked) [Clenbuterol]
remaining activity at 1.25 µM ([1]; Well no.=1743): 102% | remaining activity at 3.75 µM ([2]; Well no.=1743): 102%

OC(Cn1cncn1)(Cn1cncn1)c1ccc(F)cc1F [Fluconazole]
remaining activity at 1.25 µM ([1]; Well no.=2132): 99.9% | remaining activity at 3.75 µM ([2]; Well no.=2132): 100%

CCN(CC)C(C)C(=O)N1c2ccccc2Sc2ccccc21 (stereo not drawn) [10-(alpha-Diethylaminopropionyl)-phenothiazine hydrochloride]
remaining activity at 1.25 µM ([1]; Well no.=531): 104% | remaining activity at 3.75 µM ([2]; Well no.=531): 99.7%

C[C@@]1(C(=O)N[C@@H](CCC(=O)O)C(=O)O)CCCN1C(=O)CN [Trofinetide] (H-Gly-[αMeP]-Glu-OH)
remaining activity at 1.25 µM ([1]; Well no.=8554): 108% | remaining activity at 3.75 µM ([2]; Well no.=8554): 98.6%

COc1ccc2c(c1)[C@]13CCCC[C@@H]1[C@H](C2)N(C)CC3 [Dextromethorphan]
remaining activity at 1.25 µM ([1]; Well no.=1976): 98.8% | remaining activity at 3.75 µM ([2]; Well no.=1976): 101%

O=Nc1c(-c2c(O)[nH]c3cc(Br)ccc23)[nH]c2ccccc12 [GSK-3 Inhibitor IX]
remaining activity at 1.25 µM ([1]; Well no.=2466): 95.8% | remaining activity at 3.75 µM ([2]; Well no.=2466): 98.6%

CC(=O)O[C@]1(C(C)=O)CC[C@H]2[C@@H]3C=C(Cl)C4=CC(=O)[C@@H]5C[C@@H]5[C@]4(C)[C@H]3CC[C@@]21C [Cyproterone acetate]
remaining activity at 1.25 µM ([1]; Well no.=316): 95.3% | remaining activity at 1.25 µM ([1]; Well no.=1934): 99.5% | remaining activity at 3.75 µM ([2]; Well no.=316): 95.7% | remaining activity at 3.75 µM ([2]; Well no.=1934): 99.8%

C[C@H](N)[C@H](O)c1ccccc1 [Phenylpropanolamine]
remaining activity at 1.25 µM ([1]; Well no.=2292): 96.7% | remaining activity at 3.75 µM ([2]; Well no.=2292): 97.2%
